Legend:
Conditions in all cases: 72 h
U2OS [1] = test: cell viability relative to DMSO; higher = less toxic
HepG2 [2] = test: as above
Calu-3 [3] = test: as above
Vero E6 [4] = test: as above
Caco-2 [5] = test: as above
U2OS [6] = test: relative viability EC50 (midpoint between 100% and the lowest measured viability); higher = less toxic
HepG2 [7] = test: as above
Calu-3 [8] = test: as above
Vero E6 [9] = test: as above
Caco-2 [10] = test: as above
U2OS [11] = test: drug sensitivity score (DSS) for viability; higher = more toxic; extreme values may be limits of the assay
HepG2 [12] = test: as above
Calu-3 [13] = test: as above
Vero E6 [14] = test: as above
Caco-2 [15] = test: as above

| SMILES | cell viability (U2OS [1]; 1 nM) [%] | cell viability (U2OS [1]; 10 nM) [%] | cell viability (U2OS [1]; 100 nM) [%] | cell viability (U2OS [1]; 1000 nM) [%] | cell viability (U2OS [1]; 10000 nM) [%] | cell viability (HepG2 [2]; 1 nM) [%] | cell viability (HepG2 [2]; 10 nM) [%] | cell viability (HepG2 [2]; 100 nM) [%] | cell viability (HepG2 [2]; 1000 nM) [%] | cell viability (HepG2 [2]; 10000 nM) [%] | cell viability (Calu-3 [3]; 1 nM) [%] | cell viability (Calu-3 [3]; 10 nM) [%] | cell viability (Calu-3 [3]; 100 nM) [%] | cell viability (Calu-3 [3]; 1000 nM) [%] | cell viability (Calu-3 [3]; 10000 nM) [%] | cell viability (Vero E6 [4]; 1 nM) [%] | cell viability (Vero E6 [4]; 10 nM) [%] | cell viability (Vero E6 [4]; 100 nM) [%] | cell viability (Vero E6 [4]; 1000 nM) [%] | cell viability (Vero E6 [4]; 10000 nM) [%] | cell viability (Caco-2 [5]; 1 nM) [%] | cell viability (Caco-2 [5]; 10 nM) [%] | cell viability (Caco-2 [5]; 100 nM) [%] | cell viability (Caco-2 [5]; 1000 nM) [%] | cell viability (Caco-2 [5]; 10000 nM) [%] | relative viability EC50 (U2OS [6]) [µM] | relative viability EC50 (HepG2 [7]) [µM] | relative viability EC50 (Calu-3 [8]) [µM] | relative viability EC50 (Vero E6 [9]) [µM] | relative viability EC50 (Caco-2 [10]) [µM] | drug sensitivity score (U2OS [11]) | drug sensitivity score (HepG2 [12]) | drug sensitivity score (Calu-3 [13]) | drug sensitivity score (Vero E6 [14]) | drug sensitivity score (Caco-2 [15]) |
| --- | --- | --- | --- | --- | --- | --- | --- | --- | --- | --- | --- | --- | --- | --- | --- | --- | --- | --- | --- | --- | --- | --- | --- | --- | --- | --- | --- | --- | --- | --- | --- | --- | --- | --- | --- |
| C[C@]12CC[C@@H]3c4ccc(OS(=O)(=O)O)cc4CC[C@H]3[C@@H]1CCC2=O [estropipate] | 93.4 | 95.6 | 95 | 98 | 108 | 111 | 110 | 103 | 103 | 97.4 | 99.1 | 99.1 | 99.3 | 111 | 103 | 99.5 | 95.2 | 102 | 84.8 | 101 | 102 | 96.7 | 112 | 109 | 93.4 | > 10 | > 10 | > 10 | > 10 | > 10 | 0 | 0 | 0 | 0 | 0 |
| Cc1ccc(-c2ncc(Cl)cc2-c2ccc(S(C)(=O)=O)cc2)cn1 [etoricoxib] | 98.1 | 103 | 97.2 | 98.5 | 94.2 | 101 | 90.5 | 99.5 | 104 | 98.6 | 94.7 | 99 | 90 | 104 | 101 | 96.4 | 101 | 96.5 | 99.2 | 94 | 95.3 | 108 | 92.5 | 99.9 | 104 | > 10 | > 10 | > 10 | > 10 | > 10 | 0 | 0 | 0 | 0 | 0 |
| CCOCCOc1ccccc1C(N)=O [etosalamide] | 102 | 99.9 | 102 | 101 | 97.7 | 111 | 104 | 86.7 | 101 | 92.3 | 102 | 90.5 | 97.6 | 101 | 98.7 | 104 | 93.7 | 93.3 | 95.4 | 96.1 | 91.3 | 89.5 | 108 | 97.9 | 100 | > 10 | > 10 | > 10 | > 10 | > 10 | 0 | 0 | 0 | 0 | 0 |
| COc1ccc(-c2cc(=O)c3c(O)c(OC)c(O)cc3o2)cc1OC [eupatilin] | 105 | 97.3 | 102 | 99.7 | 101 | 94.2 | 99 | 85.9 | 99.5 | 90.1 | 92.2 | 101 | 92.6 | 93.9 | 78.5 | 99.6 | 102 | 97.2 | 97.3 | 97.8 | 98.3 | 94.8 | 94.7 | 96.9 | 92.9 | > 10 | > 10 | > 10 | > 10 | > 10 | 0 | 0 | 0.9 | 0 | 0 |
| Cn1cc([S+](C)[O-])c(=O)c2ccc(F)cc21 (stereo not given) [flosequinan] | 104 | 95.3 | 98.5 | 99 | 102 | 103 | 97.9 | 97 | 95.4 | 86.9 | 98.6 | 95.5 | 99.6 | 101 | 110 | 97.5 | 97.7 | 98.8 | 96.3 | 96.4 | 110 | 95.3 | 107 | 102 | 95.7 | > 10 | > 10 | > 10 | > 10 | > 10 | 0 | 0.1 | 0 | 0 | 0 |
| O=C(O)c1ccccc1Nc1cccc(C(F)(F)F)c1 [flufenamic-acid] | 98.5 | 98.1 | 95.5 | 97.5 | 100 | 93.7 | 103 | 101 | 102 | 101 | 101 | 108 | 95.9 | 112 | 92.2 | 104 | 94.2 | 100 | 96 | 95.8 | 93.5 | 96.3 | 85.4 | 101 | 96.2 | > 10 | > 10 | > 10 | > 10 | > 10 | 0 | 0 | 0 | 0 | 0 |

Reference: the supplement of paper PMC13380429
